Values belong to the compound of their own block, whether it stands above or below them.
Key:
[1] = Negative allosteric modulator activity at P-gp in human LCC6MDR cells overexpressing P-gp assessed as reversal of P-gp mediated PTX resistance by measuring paclitaxel IC50 incubated for 5 days by MTS assay
[2] = Negative allosteric modulator activity at human P-gp Q1193F mutant expressed in HEK293FT cells assessed as reversal of P-gp mediated PTX resistance by measuring paclitaxel IC50 incubated for 5 days by MTS assay (Rvb = 453.6 +/- 14.8 nM)
[3] = Negative allosteric modulator activity at human P-gp L1113A mutant expressed in HEK293FT cells assessed as reversal of P-gp mediated PTX resistance by measuring paclitaxel IC50 incubated for 5 days by MTS assay (Rvb = 590 +/- 14.2 nM)
[4] = Negative allosteric modulator activity at human P-gp I1115L mutant expressed in HEK293FT cells assessed as reversal of P-gp mediated PTX resistance by measuring paclitaxel IC50 incubated for 5 days by MTS assay (Rvb = 472 +/- 15.4 nM)
[5] = Negative allosteric modulator activity at human P-gp Q1193T mutant expressed in HEK293FT cells assessed as reversal of P-gp mediated PTX resistance by measuring paclitaxel IC50 incubated for 5 days by MTS assay (Rvb = 523.6 +/- 33.7 nM)
[6] = Negative allosteric modulator activity at human P-gp T1226Y mutant expressed in HEK293FT cells assessed as reversal of P-gp mediated PTX resistance by measuring paclitaxel IC50 incubated for 5 days by MTS assay (Rvb = 449.3 +/- 31.2 nM)
[7] = Negative allosteric modulator activity at human P-gp T1226F mutant expressed in HEK293FT cells assessed as reversal of P-gp mediated PTX resistance by measuring paclitaxel IC50 incubated for 5 days by MTS assay (Rvb = 409.9 +/- 19.7 nM)
[8] = Negative allosteric modulator activity at human P-gp G1114V mutant expressed in HEK293FT cells assessed as reversal of P-gp mediated PTX resistance by measuring paclitaxel IC50 incubated for 5 days by MTS assay (Rvb = 3.4 +/- 0.5 nM)
[9] = Negative allosteric modulator activity at human P-gp I1115N mutant expressed in HEK293FT cells assessed as reversal of P-gp mediated PTX resistance by measuring paclitaxel IC50 incubated for 5 days by MTS assay (Rvb = 10.2 +/- 1.6 nM)
[10] = Negative allosteric modulator activity at human P-gp I1115M mutant expressed in HEK293FT cells assessed as reversal of P-gp mediated PTX resistance by measuring paclitaxel IC50 incubated for 5 days by MTS assay (Rvb = 9.8 +/- 0.9 nM)
[11] = Negative allosteric modulator activity at human P-gp G1114A mutant expressed in HEK293FT cells assessed as reversal of P-gp mediated PTX resistance by measuring paclitaxel IC50 incubated for 5 days by MTS assay (Rvb = 5.6 +/- 1.1 nM)
[12] = Negative allosteric modulator activity at human P-gp I1115F mutant expressed in HEK293FT cells assessed as reversal of P-gp mediated PTX resistance by measuring paclitaxel IC50 incubated for 5 days by MTS assay (Rvb = 663.1 +/- 10.2 nM)
[13] = Negative allosteric modulator activity at human P-gp G1114L mutant expressed in HEK293FT cells assessed as reversal of P-gp mediated PTX resistance by measuring paclitaxel IC50 incubated for 5 days by MTS assay (Rvb = 4.5 +/- 1.1 nM)
[14] = Negative allosteric modulator activity at human P-gp T1226A mutant expressed in HEK293FT cells assessed as reversal of P-gp mediated PTX resistance by measuring paclitaxel IC50 incubated for 5 days by MTS assay (Rvb = 6.3 +/- 2.1 nM)
[15] = Negative allosteric modulator activity at human P-gp H1195A mutant expressed in HEK293FT cells assessed as reversal of P-gp mediated PTX resistance by measuring paclitaxel IC50 incubated for 5 days by MTS assay (Rvb = 3.4 +/- 1.5 nM)
[16] = Negative allosteric modulator activity at human P-gp I1115K mutant expressed in HEK293FT cells assessed as reversal of P-gp mediated PTX resistance by measuring paclitaxel IC50 incubated for 5 days by MTS assay (Rvb = 6.2 +/- 2 nM)
[17] = Negative allosteric modulator activity at human P-gp T1226W mutant expressed in HEK293FT cells assessed as reversal of P-gp mediated PTX resistance by measuring paclitaxel IC50 incubated for 5 days by MTS assay (Rvb = 363.5 +/- 24.9 nM)
[18] = Negative allosteric modulator activity at human P-gp I1115A mutant expressed in HEK293FT cells assessed as reversal of P-gp mediated PTX resistance by measuring paclitaxel IC50 incubated for 5 days by MTS assay (Rvb = 7.5 +/- 2.4 nM)
[19] = Negative allosteric modulator activity at human P-gp G1114I mutant expressed in HEK293FT cells assessed as reversal of P-gp mediated PTX resistance by measuring paclitaxel IC50 incubated for 5 days by MTS assay (Rvb = 10.2 +/- 2.4 nM)
[20] = Negative allosteric modulator activity at human P-gp Q1193A mutant expressed in HEK293FT cells assessed as reversal of P-gp mediated PTX resistance by measuring paclitaxel IC50 incubated for 5 days by MTS assay (Rvb = 483.4 +/- 17.2 nM)
[21] = Negative allosteric modulator activity at human P-gp I1115Y mutant expressed in HEK293FT cells assessed as reversal of P-gp mediated PTX resistance by measuring paclitaxel IC50 incubated for 5 days by MTS assay (Rvb = 6.9 +/- 1.2 nM)
[22] = Negative allosteric modulator activity at human P-gp I1115W mutant expressed in HEK293FT cells assessed as reversal of P-gp mediated PTX resistance by measuring paclitaxel IC50 incubated for 5 days by MTS assay (Rvb = 7.8 +/- 0.9 nM)
[23] = Negative allosteric modulator activity at human P-gp Q1193E mutant expressed in HEK293FT cells assessed as reversal of P-gp mediated PTX resistance by measuring paclitaxel IC50 incubated for 5 days by MTS assay (Rvb = 395.8 +/- 13.4 nM)
[24] = Negative allosteric modulator activity at human P-gp Q1193K mutant expressed in HEK293FT cells assessed as reversal of P-gp mediated PTX resistance by measuring paclitaxel IC50 incubated for 5 days by MTS assay (Rvb = 466.2 +/- 72.3 nM)
[25] = Negative allosteric modulator activity at human P-gp C1227A mutant expressed in HEK293FT cells assessed as reversal of P-gp mediated PTX resistance by measuring paclitaxel IC50 incubated for 5 days by MTS assay (Rvb = 352.1 +/- 30.6 nM)
[26] = Negative allosteric modulator activity at human P-gp Q1193N mutant expressed in HEK293FT cells assessed as reversal of P-gp mediated PTX resistance by measuring paclitaxel IC50 incubated for 5 days by MTS assay (Rvb = 560.2 +/- 43.9 nM)
[27] = Negative allosteric modulator activity at human P-gp Q1193C mutant expressed in HEK293FT cells assessed as reversal of P-gp mediated PTX resistance by measuring paclitaxel IC50 incubated for 5 days by MTS assay (Rvb = 359.4 +/- 22.3 nM)
[28] = Negative allosteric modulator activity at human P-gp I1115E mutant expressed in HEK293FT cells assessed as reversal of P-gp mediated PTX resistance by measuring paclitaxel IC50 incubated for 5 days by MTS assay (Rvb = 7.4 +/- 0.8 nM)
[29] = Negative allosteric modulator activity at human wildtype P-gp expressed in HEK293FT cells assessed as reversal of P-gp mediated PTX resistance by measuring paclitaxel IC50 incubated for 5 days by MTS assay (Rvb = 540.5 +/- 20.3 nM)
[30] = Negative allosteric modulator activity at P-gp in human LCC6MDR cells overexpressing P-gp assessed as reversal of P-gp mediated paclitaxel resistance activity incubated for 5 days by MTS assay

- IC50 [1]: 3.8 nM
- IC50 [2]: 81 nM
- IC50 [3]: 4.2 nM
- IC50 [4]: 10 nM
- IC50 [5]: 61 nM
- IC50 [6]: 7.2 nM
- IC50 [7]: 6.9 nM
- IC50 [8]: 3.5 nM
- IC50 [9]: 9.9 nM
- IC50 [10]: 7.9 nM
- IC50 [11]: 4.3 nM
- IC50 [12]: 43 nM
- IC50 [13]: 4.8 nM
- IC50 [14]: 4.6 nM
- IC50 [15]: 4.7 nM
- IC50 [16]: 7.8 nM
- IC50 [17]: 6.4 nM
- IC50 [18]: 6.3 nM
- IC50 [19]: 8.6 nM
- IC50 [20]: 112 nM
- IC50 [21]: 8.2 nM
- IC50 [22]: 8.3 nM
- IC50 [23]: 93 nM
- IC50 [24]: 48 nM
- IC50 [25]: 5.2 nM
- IC50 [26]: 11 nM
- IC50 [27]: 29 nM
- IC50 [28]: 7.6 nM
- IC50 [29]: 7.4 nM
SMILES: O=c1cc(-c2ccc(OCCOCCNCc3ccccc3)cc2)oc2ccccc12

- IC50 [1]: 2.1 nM
- EC50 [30]: 110 nM
SMILES: [N-]=[N+]=NCc1cc(CNCCOCCOc2ccc(-c3cc(=O)c4ccccc4o3)cc2)cc(N=[N+]=[N-])c1

- IC50 [1]: 158 nM
- EC50 [30]: 3010 nM
SMILES: O=c1cc(-c2ccc(OCCOCCN(Cc3ccc(C4(C(F)(F)F)N=N4)cc3)Cc3ccc(C4(C(F)(F)F)N=N4)cc3)cc2)oc2ccccc12

- IC50 [1]: 57 nM
- EC50 [30]: 602 nM
SMILES: C#CCN(CCOCCOc1ccc(-c2cc(=O)c3ccccc3o2)cc1)Cc1ccc(C2(C(F)(F)F)N=N2)cc1

- IC50 [1]: 1.4 nM
- EC50 [30]: 66 nM
SMILES: C#CCOc1cccc2oc(-c3ccc(OCCOCCNCc4ccc(C5(C(F)(F)F)N=N5)cc4)cc3)cc(=O)c12

- EC50 [30]: > 10000 nM
SMILES: O=c1cc(-c2ccc(O)cc2)oc2cc(O)cc(O)c12 [Naringenin, 18]

The next lines start with the compound.

SMILES: C#CCNc1cc(C)cc2c(=O)cc(-c3ccc(OCCOCCNCc4ccc(C5(C(F)(F)F)N=N5)cc4)cc3)oc12
- IC50 [1]: 280 nM
- EC50 [30]: 733 nM

SMILES: C#CCNc1cc(C)cc2c(=O)cc(-c3ccc(OCCOCCN(Cc4ccc(C5(C(F)(F)F)N=N5)cc4)Cc4ccc(C5(C(F)(F)F)N=N5)cc4)cc3)oc12
- IC50 [1]: 312 nM

SMILES: O=c1cc(-c2ccc(OCCOCCNCc3ccc(C4(C(F)(F)F)N=N4)cc3)cc2)oc2ccccc12
- IC50 [1]: 2.3 nM
- EC50 [30]: 107 nM

SMILES: O=c1cc(-c2ccc(OCCOCCOCCOCCOc3ccc(-c4cc(=O)c5c(O)cc(O)cc5o4)cc3)cc2)oc2cc(O)cc(O)c12
- EC50 [30]: 900 nM

SMILES: O=c1cc(-c2ccc(OCCOCCOCCOCCOc3ccc(-c4cc(=O)c5ccccc5o4)cc3)cc2)oc2ccccc12
- EC50 [30]: 360 nM
